Drawing on patent US8063218B2, “Imidazopyridine inhibitors of IAP” (Genentech, Inc., priority 2006, dated 2011), this text covers Ki for 4 compounds.

Each structure is given as a SMILES string.

The target in the experiment is T1, MLXBIR3SG (Homo sapiens, UniProt Q96CA5, S150G).
T1 sequence (Q96CA5 with tags, fused parts or gaps S150G limits assumed): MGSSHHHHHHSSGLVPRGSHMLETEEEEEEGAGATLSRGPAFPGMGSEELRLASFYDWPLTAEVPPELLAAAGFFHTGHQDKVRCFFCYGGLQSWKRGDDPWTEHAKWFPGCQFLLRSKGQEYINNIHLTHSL
In words: Fluorescence Polarization Peptide Binding Assay (competition with AVP-diPhe-FAM probe). As to conditions: competition: MLXBIR3SG at 30 nM, 5 nM AVP-diPhe-FAM probe; Ki determined from the IC50 values. Here is the method: In the following experiments was used a chimeric BIR domain referred to as MLXBIR3SG in which 11 of 110 residues correspond to those found in XIAP-BIR3, while the remainder correspond to ML-IAP-BIR. […] The improved caspase-9 inhibition of the chimeric BIR domain MLXBIR3SG has been correlated with increased inhibition of doxorubicin-induced apoptosis when transfected into MCF7 cells. MLXBIR3SG sequence:
Fluorescence Polarization Peptide Binding Assay
Polarization experiments were performed on an Analyst HT 96-384 (Molecular Devices Corp.) according to the procedure of Keating, S. M., Marsters, J, Beresini, M., Ladner, C., Zioncheck, K., Clark, K., Arellano, F., and Bodary., S. (2000) in Proceedings of SPIE: In Vitro Diagnostic Instrumentation (Cohn, G. E., Ed.) pp 128-137, Bellingham, Wash. Samples for fluorescence polarization affinity measurements were prepared by addition of 1:2 serial dilutions starting at a final concentration of 5 μM of MLXBIR3SG in polarization buffer (50 mM Tris [pH 7.2], 120 mM NaCl, 1% bovine globulins 5 mM DTT and 0.05% octylglucoside) to 5-carboxyflourescein-conjugated AVPdi-Phe-NH2 (AVP-diPhe-FAM) at 5 nM final concentration.
The reactions were read after an incubation time of 10 minutes at room temperature with standard cut-off filters for the fluorescein fluorophore (λex=485 nm; λem=530 nm) in 96-well black HE96 plates (Molecular Devices Corp.). Fluorescence values were plotted as a function of the protein concentration, and the IC50s were obtained by fitting the data to a 4-parameter equation using Kaleidograph software (Synergy software, Reading, Pa.). Competition experiments were performed by addition of the MLXBIR3SG at 30 nM to wells containing 5 nM of the AVP-diPhe-FAM probe as well as 1:3 serial dilutions of antagonist compounds starting at a concentration of 300 μM in the polarization buffer. Samples were read after a 10-minute incubation. Fluorescence polarization values were plotted as a function of the antagonist concentration, and the IC50 values were obtained by fitting the data to a 4-parameter equation using Kaleidograph software (Synergy software, Reading, Pa.). Inhibition constants (Ki) for the antagonists were determined from the IC50 values.
On the technique in general: Polarisation of emitted light reports the rotation of a fluorescent probe.
Usually Ki stands for the equilibrium dissociation constant of an inhibitor or competing ligand from its target. `CN[C@@H](C)C(=O)N[C@H](C(=O)N1CCC[C@H]1c1cn2c(-c3ccccc3)cccc2n1)C1CCOCC1` [Compound 1]: the inhibition constant Ki worked out at 89.1 nM.
The value for `CN[C@@H](C)C(=O)N[C@H](C(=O)N1CCC[C@H]1c1cn2cccc(-c3cccc4ccccc34)c2n1)C1CCOCC1` [Compound 20] was 1830 nM; that for `CN[C@@H](C)C(=O)N[C@H](C(=O)N1CCC[C@H]1c1cn2cccc(-c3ccc(N(C)C)cc3)c2n1)C1CCOCC1` [Compound 7] was 18900 nM.
The value for `CN[C@@H](C)C(=O)N[C@H](C(=O)N1CCC[C@H]1c1cn2cccc(-c3ccc([N+](=O)[O-])cc3)c2n1)C1CCOCC1` [Compound 8] was 2310 nM.
